Read-outs that look alike come from different tables or passages of the source.
Experiments:
[1] = Human Maximum Tolerated Dose (MTD) of ^18F-FDG, organ dosimetry calculation; details: for 5 Ci FDG Organ dose / 7.5 Ci FDG Organ dose / MTD FDG (calculated MTD of ^18F-FDG for the organ): 70 Kg person
Procedure: The dose-limiting organ for therapy with ^18F-FDG is the bone marrow. The activity of ^18F-FDG that will deliver doses of 200 rad to the red marrow (less than 5% damage in 5 years) (Early and Sodee, 1995) and also 300 rad were calculated using the Medical Internal Radionuclide Dosimetry formalism. A dose of 300 rad was considered because it causes acceptable and manageable hematologic toxicity in selected patients (Early and Sodee, 1995). The subsequent doses delivered to ^18F-FDG-avid tumors were calculated.
Human Maximum Tolerated Dose (MTD) of ^18F-FDG. Table 1 indicates the radiation dose (Column 2) to each organ (Column 1) from 1mCi of ^18F-FDG for a 70 Kg person. The tolerated radiation dose of each organ (5% complications in 5 years) is described in Table 1, Column 3. The MTD of ^18F-FDG for each organ is described in Table 1, Column 4. The smallest value in this column is 4.88 Ci, which is the MTD of ^18F-FDG for a 70 Kg person, delivering 200 cGy to the ovaries. This is the critical organ for female patients; however, female patients with metastatic cancer have usually undergone chemotherapy causing ovarian failure or may choose to accept ovarian failure as a side effect of therapy. If ovarian function is not a consideration, then the critical organ is the bone marrow for both male and female patients. A dose of 5.00 Ci of ^18F-FDG would deliver 200 cGy to the bone marrow of a 70 Kg person.

[2] = 70 Kg person, cited from earlier work
[3] = tested on: mammary tumors of MMTV-neuT mice; test: PET imaging of MMTV-neuT mice with ^18F-FDG; assay type: in vivo, mouse; details: PET 1 hour after i.p. 0.5-2.0 mCi
Procedure: Animals. All procedures involving mice were conducted in accordance with the National Institutes of Health regulations concerning the use and care of experimental animals. The study of mice was approved by the Albert Einstein College of Medicine (AECOM) Animal Use Committee. Transgenic mice expressing the polyoma middle T antigen (PyMT) in the mammary epithelium under the control of mouse mammary tumor virus (MMTV) long terminal repeat were provided by Dr. W. J. Muller (McMaster University, Ontario, Canada) and then bred at AECOM. At the age of 10 weeks these mice have multiple mammary tumors 0.15-0.17 cm in diameter. In mice older than 18 weeks the tumors are more than 1 cm in diameter. MMTV-NeuT mice (Muller et al. 1988), which carry erbB-2 (Neu), one of the better known human breast cancer oncogenes, were purchased from Jackson Laboratories. MMTV-NeuT mice were obtained as retired breeders and some of them developed mammary tumors at the age of 5 months, whereas others remained-tumor free until 6-7 months of age. C3H/B6 female mice lacking the PyMT transgene were used as healthy controls in therapy experiments. […]
Imaging of mice with ^18F-FDG. […] The tumor to liver ratios (TLRs) were calculated by the formula TLR=counts per pixel in tumor divided by counts per pixel in liver.

[4] = tested on: BALB/c mice; test: Radiotoxicity studies of ^18F-FDG in healthy mice; assay type: in vivo, mouse; details: doses of up to 5 mCi i.p., 1 month
Procedure: Radiotoxicity studies of ^18F-FDG in healthy mice. After a 4-hour fast, […] of BALB/c mice were treated i.p. with the following doses of ^18F-FDG: group 1 (three mice), 2.5 mCi; group 2 (three mice), 5 mCi; group 3 (three mice), left untreated for control. The mice were monitored for changes in behavior and body weight for 1 month, after which they were killed. Their heart, brain, liver, kidneys, bladder, and bone marrow were removed, fixed in buffered formalin, sectioned, stained with hematoxylin and eosin (H&E), and analyzed histologically.

Structure (SMILES): O=C[C@H]([18F])[C@@H](O)[C@H](O)[C@H](O)CO [^18F-FDG, ^18F-2-deoxy-2-fluoro-D-glucose]
- 5 Ci FDG Organ dose ([1]; Bone marrow): 200 cGy
- 7.5 Ci FDG Organ dose ([1]; Bone marrow): 300 cGy
- 5 Ci FDG Organ dose ([1]; Brain): 850 cGy
- 7.5 Ci FDG Organ dose ([1]; Brain): 1275 cGy
- MTD FDG (calculated MTD of ^18F-FDG for the organ) ([1]; Brain, organ MTD 4500 cGy (5% complications in 5 years)): 26.47 Ci
- 5 Ci FDG Organ dose ([1]; Heart wall): 1250 cGy
- 7.5 Ci FDG Organ dose ([1]; Heart wall): 1875 cGy
- MTD FDG (calculated MTD of ^18F-FDG for the organ) ([1]; Heart wall, organ MTD 4000 cGy (5% complications in 5 years)): 16.00 Ci
- 5 Ci FDG Organ dose ([1]; Kidneys): 390 cGy
- 7.5 Ci FDG Organ dose ([1]; Kidneys): 585 cGy
- MTD FDG (calculated MTD of ^18F-FDG for the organ) ([1]; Kidneys, organ MTD 2300 cGy (5% complications in 5 years)): 29.49 Ci
- 5 Ci FDG Organ dose ([1]; Liver): 440 cGy
- 7.5 Ci FDG Organ dose ([1]; Liver): 660 cGy
- MTD FDG (calculated MTD of ^18F-FDG for the organ) ([1]; Liver, organ MTD 3000 cGy (5% complications in 5 years)): 34.09 Ci
- 5 Ci FDG Organ dose ([1]; Lungs): 280 cGy
- 7.5 Ci FDG Organ dose ([1]; Lungs): 420 cGy
- MTD FDG (calculated MTD of ^18F-FDG for the organ) ([1]; Lungs, organ MTD 6500 cGy (5% complications in 5 years)): 116.07 Ci
- 5 Ci FDG Organ dose ([1]; Ovaries): 205 cGy
- 7.5 Ci FDG Organ dose ([1]; Ovaries): 308 cGy
- MTD FDG (calculated MTD of ^18F-FDG for the organ) ([1]; Ovaries, organ MTD 200 cGy (5% complications in 5 years)): 4.88 Ci
- 5 Ci FDG Organ dose ([1]; Testes): 205 cGy
- 7.5 Ci FDG Organ dose ([1]; Testes): 308 cGy
- MTD FDG (calculated MTD of ^18F-FDG for the organ) ([1]; Testes, organ MTD 500 cGy (5% complications in 5 years)): 12.20 Ci
- 5 Ci FDG Organ dose ([1]; Urinary bladder): 1350 cGy
- 7.5 Ci FDG Organ dose ([1]; Urinary bladder): 2025 cGy
- MTD FDG (calculated MTD of ^18F-FDG for the organ) ([1]; Urinary bladder, organ MTD 6500 cGy (5% complications in 5 years)): 24.07 Ci
- dose to the brain ([1]; administered dose of 7.50 Ci): 1275 rad
- Radiation dose to organ from 1 mCi ^18F-FDG ([2]; Bone marrow): 0.04 cGy/mCi
- Radiation dose to organ from 1 mCi ^18F-FDG ([2]; Brain): 0.17 cGy/mCi
- Radiation dose to organ from 1 mCi ^18F-FDG ([2]; Heart wall): 0.25 cGy/mCi
- Radiation dose to organ from 1 mCi ^18F-FDG ([2]; Kidneys): 0.078 cGy/mCi
- Radiation dose to organ from 1 mCi ^18F-FDG ([2]; Liver): 0.088 cGy/mCi
- Radiation dose to organ from 1 mCi ^18F-FDG ([2]; Lungs): 0.056 cGy/mCi
- Radiation dose to organ from 1 mCi ^18F-FDG ([2]; Ovaries): 0.041 cGy/mCi
- Radiation dose to organ from 1 mCi ^18F-FDG ([2]; Testes): 0.041 cGy/mCi
- Radiation dose to organ from 1 mCi ^18F-FDG ([2]; Urinary bladder): 0.27 cGy/mCi
- tumor to liver ratio (TLR), mean±SD [3]: 1.6±0.4
- damage in major organs including bone marrow (histological examination) [4]: no damage in major organs
